Data reported in publication PMC11189382, “Structural basis of connexin-36 gap junction channel inhibition” (Cell Discovery, 2024).

Experiments:
Cx36 [1] = molecular target: T1, Cx36 (Homo sapiens, UniProt Q9UKL4); test: cryo-EM structure of the complex; type: binding; settings: detergent, pore pocket between TM1 and TM2 at interface of two monomers
T1 construct: gene GJD2; purified in detergent; gap junction channel of docked hexameric hemichannels
T1 sequence (Q9UKL4 1-321): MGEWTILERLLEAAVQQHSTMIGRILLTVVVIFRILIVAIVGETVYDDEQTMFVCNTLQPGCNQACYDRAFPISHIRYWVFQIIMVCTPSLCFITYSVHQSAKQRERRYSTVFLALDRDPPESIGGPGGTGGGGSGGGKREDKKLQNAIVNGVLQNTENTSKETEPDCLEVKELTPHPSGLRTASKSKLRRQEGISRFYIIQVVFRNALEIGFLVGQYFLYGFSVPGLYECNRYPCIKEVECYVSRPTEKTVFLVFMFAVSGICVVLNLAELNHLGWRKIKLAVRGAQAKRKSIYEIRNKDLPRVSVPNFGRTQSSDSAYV

Cx36 [2] = molecular target: T1, Cx36; test: ligand binding assay with purified Cx36

| SMILES | cryo-EM structure of the complex (Cx36 [1]; 1 mM racemic drug) | Kd (Cx36 [2]) | cryo-EM structure of the complex (Cx36 [1]; 1 mM drug) |
| --- | --- | --- | --- |
| OC(c1cc(C(F)(F)F)nc2c(C(F)(F)F)cccc12)C1CCCCN1 (racemic) [mefloquine] | although we used a racemic mixture of the drug, the high-resolution structure captured the S/R-enantiomer | 10.4 ± 1.3 µM | – |
| C=C[C@H]1CN2CC[C@H]1C[C@@H]2[C@@H](O)c1ccnc2ccc(OC)cc12 [quinidine] | – | 58 ± 9 µM | Cx36–quin, and Cx36–quid feature additional densities, corresponding to six bound drugs per Cx36 hexamer |
| C=C[C@H]1CN2CC[C@H]1C[C@H]2[C@H](O)c1ccnc2ccc(OC)cc12 [quinine] | – | 29 ± 5.3 µM | Cx36–quin, and Cx36–quid feature additional densities, corresponding to six bound drugs per Cx36 hexamer |
